# Laboratory results taken from patent publication US20220168322A1, “NOVEL STAT3 INHIBITORS IDENTIFIED BY STRUCTURE-BASED VIRTUAL SCREENING INCORPORATING SH2 DOMAIN FLEXIBILITY” (Board of Regents, The University of Texas System, priority 2018, published 2022).
# Experiments:
# G-CSF-stimulated pSTAT3 = experiment: Inhibition of G-CSF-stimulated pSTAT3 in Kasumi-1 cells (Luminex, pSTAT3/GAPDH); format: cell-based; conditions: Kasumi1 cells, single concentration of 10 μM, G-CSF 100 ng/ml; pSTAT3/GAPDH relative to DMSO treated cells
# Experimental: […] Total protein was assayed for pSTAT3 and GAPDH levels by Luminex. GAPDH-normalized pSTAT3 values were divided by the same for untreated cells and expressed as percentage. These values were plotted as a function of Log [M] compound, and IC50 calculated using GraphPad. Data from representative experiments from at least two repeats is shown.
# Luminex bead-based assay. Luminex bead-based assays were used to determine levels of pSTAT3, pSTAT1, pSTAT5, and GAPDH, as described (Bharadwaj et al., 2015). […]
# STAT3 (aa 127-722) = biological target: T1, STAT3 (aa 127-722) (Homo sapiens, UniProt P40763); experiment: SPR assay of STAT3 binding to immobilized EGFR pY1068 phosphododecapeptide; conditions: for % of max binding at 10 μm: pEGFRp-STAT3 binding (SPR) at pH 8, compound 10 μm; for % of max binding at 100 μm: pEGFRp-STAT3 binding (SPR) at pH 8, compound 100 μm
# T1 construct: STAT3 (aa 127-722) at a concentration of 200 nM
# T1 sequence (P40763 127-722 isoform P40763-3 limits assumed, species assumed): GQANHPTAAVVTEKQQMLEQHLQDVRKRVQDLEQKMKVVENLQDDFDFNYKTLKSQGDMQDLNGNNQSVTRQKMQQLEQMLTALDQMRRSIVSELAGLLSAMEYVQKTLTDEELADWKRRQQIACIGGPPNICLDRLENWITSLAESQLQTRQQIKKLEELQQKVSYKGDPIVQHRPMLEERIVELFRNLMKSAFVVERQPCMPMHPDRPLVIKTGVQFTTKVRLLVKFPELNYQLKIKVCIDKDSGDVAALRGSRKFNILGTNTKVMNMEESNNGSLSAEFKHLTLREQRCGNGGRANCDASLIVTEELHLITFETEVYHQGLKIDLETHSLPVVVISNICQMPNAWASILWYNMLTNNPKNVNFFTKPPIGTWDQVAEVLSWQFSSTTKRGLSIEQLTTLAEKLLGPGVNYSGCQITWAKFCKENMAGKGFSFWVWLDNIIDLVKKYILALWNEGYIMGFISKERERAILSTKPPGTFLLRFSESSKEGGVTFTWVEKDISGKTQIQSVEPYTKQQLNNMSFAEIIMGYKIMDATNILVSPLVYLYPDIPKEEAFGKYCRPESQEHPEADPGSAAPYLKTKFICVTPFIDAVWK
# Experimental: Surface plasmon resonance (SPR) assay of STAT3 binding pY-peptide. STAT3 (aa 127-722) at a concentration of 200 nM in 20 mM Tris buffer (pH 8) was pre-incubated without or with compounds prior to injection onto an SA chip immobilized with phosphorylated and control non-phosphorylated biotinylated EGFR derived dodecapeptides based on sequence surrounding Y1068 (Shao et al., 2004), on a Biacore 3000 biosensor (Biacore inc., Piscataway N.J.) and analyzed as described (Bharadwaj et al., 2016).
# Surface Plasmon Resonance (SPR) was performed on the 24 compounds to determine their ability to block binding of purified STAT3 to an immobilized phosphododecapeptide based on EGFR Y1068 (EGFR pY-peptide), as described (Xu et al., 2009).
Structure (SMILES),% of Control Stimulated pSTAT3 (G-CSF-stimulated pSTAT3) [%],% of max binding at 10 μm (STAT3 (aa 127-722)) [%],% of max binding at 100 μm (STAT3 (aa 127-722)) [%]
C=CCN1C(=O)NC(=O)/C(=C/c2ccc(OCC(=O)Nc3ccc(C)cc3)cc2)C1=O [SPEC-35],69,–,–
O=C(CN1C(=O)S/C(=C\c2ccc(-c3cc(C(=O)O)ccc3Cl)o2)C1=O)Nc1ccccc1 [SPEC-23],114,–,–
O=C(CSc1nnc(-c2ccccc2)c(-c2ccccc2)n1)Nc1ccc(S(=O)(=O)Nc2nccs2)cc1 [SPEC-30],68,–,–
CC(=O)N1CCc2nc(SCC(=O)Nc3cccc(C#N)c3)c(C#N)c(C(F)(F)F)c2C1 [SPEC-62],108,–,–
O=C(Nc1ccc(Oc2ccccc2Cl)cc1)C1C2CC3C(OC(=O)C31)C2Br (centres unmarked) [SPEC-73],38,58.5,31.5
COC(=O)CSc1nc2ccc(NC(=O)c3ccccc3C(=O)N3CCN(c4ccccc4)CC3)cc2s1 [SPEC-27],61,–,–
O=C(CCCCC(=O)Nc1ccc(S(=O)(=O)Nc2ccc(F)cc2)cc1)Nc1ccc(S(=O)(=O)Nc2ccc(F)cc2)cc1 [SPEC-53],71,–,–
CC(=O)c1ccc(NC(=O)CSc2nnc(CNc3ccc(C)cc3C)n2CC2CCCO2)cc1 (centres unmarked) [SPEC-89],68,–,–
CCCC(NC(=O)c1ccccc1)C(=O)OCC(=O)Nc1nc2ccc(OC)cc2s1 (centres unmarked) [AG-690/15437974],82,–,–
CCN1C(=O)/C(=C/c2ccc(OCC(=O)O)c(OC)c2)SC1=S [SPEC-59],78,–,–
COc1cccc(-c2csc(NC(=O)C3CC(=O)N(c4cccc(Cl)c4)C3)n2)c1 (centres unmarked) [SPEC-75],55,–,–
CC1=CC(=O)OC2C=C(OCCCCCCOC3=CC4OC(=O)C=C(C)C4C=C3)C=CC12 (centres unmarked) [SPEC-17],106,–,–
COc1ccccc1CCNCc1ccc(-c2cccc(C(=O)O)c2)o1 [SPEC-44],120,–,–
CC(=O)NCCc1ccc(S(=O)(=O)Nc2ccc(C(=O)NCc3ccccc3)cc2)cc1 [SPEC-15],98,–,–
NC(=O)COc1ccc(/C=N/NC(=O)CCCOc2ccc(Cl)cc2Cl)cc1 [SPEC-12],75,–,–
COc1cccc(N=C2SC(C(=O)Nc3ccc(C(=O)O)cc3)CC(=O)N2C)c1 (centres unmarked) [SPEC-95],104,–,–
CCC(Sc1nnc(NC(=O)CCc2ccccc2)s1)C(=O)Nc1ccc(C(C)=O)cc1 (centres unmarked) [SPEC-45],113,–,–
CC1CCN(S(=O)(=O)c2ccc(NC(=O)CCCC(=O)Nc3ccc(S(=O)(=O)N4CCC(C)CC4)cc3)cc2)CC1 [SPEC-52],120,–,–
O=C(CCCCC(=O)NNC(=O)COc1ccc2ccccc2c1)NNC(=O)COc1ccc2ccccc2c1 [SPEC-49],105,–,–
O=C(CN1C(=O)S/C(=C/c2ccc(Cl)cc2)C1=O)Nc1ccc(S(=O)(=O)Nc2nccs2)cc1 [SPEC-105],86,–,–
CC1(C)CC(=O)c2sc(NC(=O)CSc3nnc(SCC(=O)Nc4nc5c(s4)C(=O)CC(C)(C)C5)s3)nc2C1 [SPEC-103],46,76.0,10.4

Structure (SMILES),% of Control Stimulated pSTAT3 (G-CSF-stimulated pSTAT3) [%],% of max binding at 10 μm (STAT3 (aa 127-722)) [%],% of max binding at 100 μm (STAT3 (aa 127-722)) [%]
COc1ccc(CCNC(=O)c2cccc(C(=O)NCCc3ccc(OC)c(OC)c3)c2)cc1OC [SPEC-67],–,64.1,51.3
O=C(CCN1C(=O)S/C(=C\c2ccc(Cl)cc2)C1=O)Nc1ccc(S(=O)(=O)Nc2nccs2)cc1 [SPEC-97],55,–,–
CC(=O)c1ccc(NC(=O)C2C3CC/C=C\CCC32)cc1 (centres unmarked) [SPEC-102],38,73.7,21.4
CS(=O)(=O)c1ccc2nc(NC(=O)c3cccc(Cn4cc(Cl)cn4)c3)sc2c1 [SPEC-66],48,57.2,15.9
CC(=O)c1ccc(NC(=O)NC2CCCCC2)cc1 [SPEC-63],118,–,–
COc1ccc(/C=N/NC(=O)COc2ccc(Cl)cc2)cc1COc1cccc2cccnc12 [SPEC-69],112,–,–
O=C(NNC(=O)[C@@H]1CCCC[C@@H]1C(=O)O)c1ccc(NC(=O)C2CC2)cc1 [SPEC-47],104,–,–
NC(=O)CCN1CCN(CCOC2Cc3cc(Cl)ccc3Sc3ccccc32)CC1 (centres unmarked) [SPEC-109],1,97.1,82.3
CCN1C(=O)N/C(=C/c2ccc(OCc3cccc(C(=O)O)c3)c(Cl)c2)C1=O [SPEC-79],79,–,–
Cc1c(C)c2ccc(OCC(=O)Nc3cccc([N+](=O)[O-])c3)c(C)c2oc1=O [SPEC-9],93,–,–
CCOC(=O)COc1ccc(-c2nc3ccccc3s2)cc1OC [SPEC-33],89,–,–
O=C(O)c1ccc(-c2ccc(/C=C3/NC(=O)N(Cc4ccccc4F)C3=O)o2)cc1Cl [SPEC-82],27,109.3,28.4
CC(=O)c1ccc(NC(=O)CC2S/C(=N\N=C3CCCCCC3)NC2=O)cc1 (centres unmarked) [SPEC-99],67,–,–
CC(=O)c1ccc(NC(=O)c2ccc(CSc3nnc(NC(=O)CCc4ccccc4)s3)cc2)cc1 [SPEC-3],77,–,–
CN1CCS/C1=C/C=C1\SC(=S)N(CC(=O)O)C1=O [SPEC-107],107,–,–
CC1=NN(c2ccc(C)cc2)C(=O)/C1=C\c1ccc(-c2ccc(C(=O)O)cc2)o1 [SPEC-46],71,–,–
O=C(CCCCC(=O)Nc1ccc(S(=O)(=O)N2CCCC2)cc1)Nc1ccc(S(=O)(=O)N2CCCC2)cc1 [SPEC-55],114,–,–
COc1ccc(CCNC2CC(=O)N(c3ccc(N4C(=O)CC(NCCc5ccc(OC)cc5)C4=O)cc3)C2=O)cc1 (centres unmarked) [SPEC-31],99,–,–
CCOc1ccc(NC(=O)CN2C(=O)S/C(=C/c3ccc(OCC(N)=O)c(OCC)c3)C2=O)cc1 [SPEC-40],75,–,–
CCN1C(=O)S/C(=C/c2ccc(OCc3cccc(C(=O)O)c3)c(Br)c2)C1=O [SPEC-83],61,–,–
COc1ccc(C(=O)COC(=O)c2ccc(NC(=O)CCCC(=O)O)cc2)cc1 [SPEC-77],121,–,–

Structure (SMILES),% of Control Stimulated pSTAT3 (G-CSF-stimulated pSTAT3) [%],% of max binding at 10 μm (STAT3 (aa 127-722)) [%],% of max binding at 100 μm (STAT3 (aa 127-722)) [%]
CC(C)c1ccc(NC(=O)C2C3C=CC(CC3)C2C(=O)O)cc1 (centres unmarked) [SPEC-65],35,57.5,43.5
CCn1c(CNc2ccc(Cl)cc2)nnc1SC(C)C(=O)Nc1ccc(C(C)=O)cc1 (centres unmarked) [SPEC-90],4,132.2,59.5
O=C(O)c1ccc(-c2ccc(CNCCc3c[nH]c4ccccc34)o2)cc1 [SPEC-42],118,–,–
CC(=O)c1ccc(NC(=O)CSc2nn3c(SCC(=O)Nc4ccc(C(C)=O)cc4)nnc3s2)cc1 [SPEC-104],91,–,–
CC(=O)c1ccc(NC(=O)C(C)Oc2ccccc2)cc1 (centres unmarked) [SPEC-94],97,–,–
COc1cc(C=Nc2cccc(Cl)c2)ccc1OCC(N)=O [SPEC-41],74,–,–
O=C(COC(=O)C1C2CC3C(OC(=O)C31)C2Br)c1ccc(Cl)cc1Cl (centres unmarked) [SPEC-74],82,–,–
CCN(CC)S(=O)(=O)c1ccc(NC(=O)CCCC(=O)Nc2ccc(S(=O)(=O)N(CC)CC)cc2)cc1 [SPEC-51],87,–,–
CC(=O)c1ccc(NC(=O)CSc2nnc(COc3ccc([N+](=O)[O-])cc3)n2C)cc1 [SPEC-92],51,–,–
COC(=O)CCC(=O)Nc1ccc(Cc2ccc(NC(=O)CCC(=O)OC)cc2)cc1 [SPEC-108],98,–,–
Cc1ccccc1NC(=O)CN1C(=O)S/C(=C/c2ccc(-c3ccc(Cl)c(C(=O)O)c3)o2)C1=O [SPEC-24],105,–,–
O=C(O)c1ccc(-c2ccc(/C=C3/NC(=O)N(c4ccc(Cl)cc4)C3=O)o2)cc1 [SPEC-80],89,–,–
Cc1c(Cl)c(=O)oc2c(C)c(OCc3ccc([N+](=O)[O-])cc3)ccc12 [SPEC-10],87,–,–
CCOc1ccc(N(C(C)C(=O)Nc2cccc(Cl)c2C)S(C)(=O)=O)cc1 (centres unmarked) [SPEC-86],5,120.1,59.1
COc1cc(C=C2C(=O)OC(C)(c3ccccc3)OC2=O)ccc1OCc1cccc(C(=O)O)c1 (centres unmarked) [SPEC-60],98,–,–
O=C(O)COc1ccc(/C=N/NC(=O)C2CCCN2S(=O)(=O)c2ccc(Cl)cc2)cc1 (centres unmarked) [SPEC-13],99,–,–
N#Cc1ccccc1Sc1ccccc1C(=O)Nc1ccc(OCC(=O)N2CCOCC2)cc1 [SPEC-14],91,–,–
O=C(COc1ccc(/C=C2/SC(=O)N(CC(=O)N3CCN(c4ccccc4)CC3)C2=O)cc1Br)Nc1ccccc1 [SPEC-11],86,–,–
O=C(O)c1cccc(-c2ccc(CNCc3ccc4c(c3)OCO4)o2)c1 [SPEC-43],96,–,–
